Laboratory results from US11801209B2, “Cooling and flavor boosting compositions” (Firmenich SA, priority 2017, dated 2023).

Tested on: expert panel of three subjects
Test: Sensory evaluation of toothpaste test formulations by an expert panel: intensity of mint flavor and of cooling effect
Assay type: in vivo, human
Conditions: test toothpaste formulation, summary of Table 8
Protocol: The potentiation may be determined by any method readily selected by one of ordinary skill in the art. In some aspects, the potentiation is determined using a sensory panel. In the aspects where the potentiation is determined using a sensory panel a subject may contact their oral cavity with a composition, and rate the perceived flavor strength and cooing strength of the composition.
In some aspects, the perceived flavor intensity may be rated from 0 to 5, wherein 0 is no perceived flavor intensity, 1 is a very low perceived flavor intensity, 2 is a low perceived flavor intensity, 3 is a moderate perceived flavor intensity, 4 is a high perceived flavor intensity, and 5 is a very high perceived flavor intensity.
In some aspects, the perceived cooling intensity may be rated from 0 to 5, wherein 0 is no perceived cooling intensity, 1 is a very low perceived cooling intensity, 2 is a low perceived cooling intensity, 3 is a moderate perceived cooling intensity, 4 is a high perceived cooling intensity, and 5 is a very high perceived […].
(§1) An expert panel of three subjects was asked to evaluate the intensity of the mint flavor and the intensity of the cooling effect of the test formulations. The subjects were asked to apply approximately 1 g of a test sample on to a toothbrush, and rinse the toothbrush under running water for 5 secs to moisten the paste and soften the bristles. The subjects then brushed their teeth with the applied test sample, taking care to minimize any contact with the subjects' gums. The subjects then expectorated the test sample, and rinsed their mouth with water. The subjects then ranked the intensity of the mint flavor and the intensity of the cooling effect of the test formulations. The subjects were asked to wait for 15 min between each test sample.
as §1, with “subjects” for “subjects was”

Cc1noc(C)c1Cn1cc(N2C(=O)CN(Cc3cccc(O)c3)C2=O)cn1 [3-(1-((3,5-dimethylisoxazol-4-yl)methyl)-1H-pyrazol-4-yl)-1-(3-hydroxybenzyl)imidazolidine-2,4-dione]
effect on perceived flavor intensity and perceived cooling intensity of the mint flavor: able to increase both the perceived flavor intensity and the perceived cooling intensity

CCCCC[C@@H]1C(=O)CC[C@@H]1CC(=O)OC [(+)-methyl(1R)-cis-3-oxo-2-pentyl-1-cyclopentaneacetate]
effect on perceived flavor intensity and perceived cooling intensity of the mint flavor: able to increase both the perceived flavor intensity and the perceived cooling intensity

O=C(O)C1CCCCC1 [cyclohexanecarboxylic acid]
effect on perceived flavor intensity and perceived cooling intensity of the mint flavor: able to increase both the perceived flavor intensity and the perceived cooling intensity

COc1cc(/C=C/C(=O)O)ccc1O [ferulic acid]
effect on perceived flavor intensity and perceived cooling intensity of the mint flavor: able to increase both the perceived flavor intensity and the perceived cooling intensity

COC(C)=O [methyl acetate]
effect on perceived flavor intensity and perceived cooling intensity of the mint flavor: able to increase both the perceived flavor intensity and the perceived cooling intensity

CCCC(CCC)NC(=O)c1ccc2c(c1)OCO2 [n-(1-propylbutyl)-1,3-benzodioxole-5-carboxamide]
effect on perceived flavor intensity and perceived cooling intensity of the mint flavor: able to increase both the perceived flavor intensity and the perceived cooling intensity

O=C(CCc1ccc(O)cc1)c1c(O)cc(O)cc1O [phloretin]
effect on perceived flavor intensity and perceived cooling intensity of the mint flavor: able to increase both the perceived flavor intensity and the perceived cooling intensity
